Laboratory results as given in ChEMBL document CHEMBL5137063, “Medicinal Chemistry and Chemical Biology of Nurr1 Modulators: An Emerging Strategy in Neurodegeneration” (J Med Chem, 2022).

Key:
[1] = target: T1, Nuclear receptor subfamily 4 group A member 2 (Homo sapiens, UniProt P43354); assay: Agonist activity at human Nurr1 measured by Gal4-Nurr1 hybrid reporter gene assay
[2] = target: T1, Nuclear receptor subfamily 4 group A member 2; assay: Antagonist activity at full length human Nurr1 expressed in HEK293T cells co-expressing 3xNBRE3-luciferase at 50 uM incubated for 18 hrs by luciferase transactivation assay relative to control; type: cell-based; set-up: scale not given: the % may be the effect or the level left
[3] = target: T1, Nuclear receptor subfamily 4 group A member 2; assay: Antagonist activity at full length human Nurr1 expressed in MN9D cells co-expressing 3xNBRE3-luciferase at 50 uM incubated for 18 hrs by luciferase transactivation assay relative to control; type: cell-based; set-up: scale not given: the % may be the effect or the level left
[4] = target: T1, Nuclear receptor subfamily 4 group A member 2; assay: Agonist activity at Nurr1 in human SK-N-BE(2)-C cells measured by NBRE-based luciferase reporter gene assay; type: cell-based
[5] = target: T1, Nuclear receptor subfamily 4 group A member 2; assay: Agonist activity at Nurr1 in human SK-N-BE(2)-C cells measured by Gal4-based luciferase reporter gene assay; type: cell-based
[6] = target: T2, Nuclear receptor subfamily 4 group A member 2 (Mus musculus, UniProt Q06219); assay: Agonist activity at Nurr1 in mouse MN9D cells measured by NBRE-based luciferase reporter gene assay; type: cell-based
T2 sequence (Q06219 whole entry, the tested form may be a part): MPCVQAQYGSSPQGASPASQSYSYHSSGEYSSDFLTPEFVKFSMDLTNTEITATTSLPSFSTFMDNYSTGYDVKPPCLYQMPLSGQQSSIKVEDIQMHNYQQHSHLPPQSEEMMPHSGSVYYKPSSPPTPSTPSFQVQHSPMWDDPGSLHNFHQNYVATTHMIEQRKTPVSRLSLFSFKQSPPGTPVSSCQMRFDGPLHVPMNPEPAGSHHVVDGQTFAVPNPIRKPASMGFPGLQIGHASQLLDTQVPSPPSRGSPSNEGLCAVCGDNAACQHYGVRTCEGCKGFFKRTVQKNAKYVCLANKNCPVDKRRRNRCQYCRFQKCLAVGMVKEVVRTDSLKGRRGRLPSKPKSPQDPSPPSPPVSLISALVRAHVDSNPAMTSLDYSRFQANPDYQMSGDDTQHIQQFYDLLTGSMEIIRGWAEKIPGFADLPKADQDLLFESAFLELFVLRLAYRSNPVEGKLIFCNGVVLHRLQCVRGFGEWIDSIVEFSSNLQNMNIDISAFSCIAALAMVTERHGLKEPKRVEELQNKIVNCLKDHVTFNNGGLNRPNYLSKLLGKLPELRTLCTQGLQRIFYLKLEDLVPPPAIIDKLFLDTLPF

[7] = target: T2, Nuclear receptor subfamily 4 group A member 2; assay: Agonist activity at Nurr1 in mouse MN9D cells measured by Gal4-based luciferase reporter gene assay; type: cell-based
[8] = target: T3, Nuclear receptor subfamily 4 group A member 2 (Rattus norvegicus, UniProt Q07917); assay: Agonist activity at Nurr1 in rat N27-A cells measured by NBRE-based luciferase reporter gene assay; type: cell-based
T3 sequence (Q07917 whole entry, the tested form may be a part): as the sequence (Q06219 whole entry, the tested form may be a part) above, with S134G, P182R counted along it

[9] = target: T3, Nuclear receptor subfamily 4 group A member 2; assay: Agonist activity at Nurr1 in rat N27-A cells measured by Gal4-based luciferase reporter gene assay; type: cell-based
[10] = target: T1, Nuclear receptor subfamily 4 group A member 2; assay: Agonist activity at Nurr1 ligand binding domain (unknown origin) measured by Gal4-based reporter gene assay
[11] = target: T1, Nuclear receptor subfamily 4 group A member 2; assay: Binding affinity towards Nurr1 ligand binding domain (unknown origin) measured by tryptophan fluorescence spectroscopy

T1 sequence (P43354 whole entry, the tested form may be a part): as the sequence (Q06219 whole entry, the tested form may be a part) above, with S131T, S134G, D354E counted along it

Question: With `Fc1ccc(-c2c[nH]c3ccccc23)cc1` as the molecule, how does the EC50 [1] read?
Answer: 7.7 µM

Question: How did the Activity [2] turn out when `CC/C=C\C/C=C\C/C=C\C/C=C\C/C=C\C/C=C\CCC(=O)O` was run?
Answer: 25%

Question: And the Activity [3]?
Answer: 25%

Question: With `CCCCC[C@H](O)/C=C/[C@H]1[C@H](O)CC(=O)[C@@H]1CCCCCCC(=O)O` [ALPROSTADIL] as the molecule, how does the EC50 [4] read?
Answer: 3 µM

Question: What about the EC50 [5] of the same molecule?
Answer: 3 µM

Question: What about the EC50 [6] of the same molecule?
Answer: 3 µM

Question: And the EC50 [7]?
Answer: 3 µM

Question: And the EC50 [8]?
Answer: 3 µM

Question: And the EC50 [9]?
Answer: 3 µM

Question: With `CCN(CC)Cc1cc(Nc2ccnc3cc(Cl)ccc23)ccc1O` [AMODIAQUINE] as the molecule, how does the EC50 [10] read?
Answer: 20 µM

Question: `CCCCC/C=C\C/C=C\C/C=C\C/C=C\CCCC(=O)O` [ARACHIDONIC ACID] was tested. Which Kd [11] did it give?
Answer: 50 µM

Question: With `CCCCC/C=C\C/C=C\CCCCCCCC(=O)O` [LINOLEIC ACID] as the molecule, how does the Kd [11] read?
Answer: 50 µM

Question: How did the Kd [11] turn out when `CCCCCCCC/C=C\CCCCCCCC(=O)O` [OLEIC ACID] was run?
Answer: 50 µM

Question: `CCCCC[C@H](O)/C=C/[C@H]1C=CC(=O)[C@@H]1CCCCCCC(=O)O` [PROSTAGLANDIN A1] was tested. Which EC50 [4] did it give?
Answer: 5 µM

Question: What about the EC50 [5] of the same molecule?
Answer: 5 µM

Question: What about the EC50 [6] of the same molecule?
Answer: 5 µM

Question: And the EC50 [7]?
Answer: 5 µM

Question: And the EC50 [8]?
Answer: 5 µM

Question: And the EC50 [9]?
Answer: 5 µM
